Common to all, as to assay type: physicochemical
A short description of series [1]: Partition coefficient (logP). The following applies: octanol/water.
A short description of series [2]: Partition coefficient of octanol and water was determined.
A short description of series [3]: True partition coefficient corrected for ionization was determined. Particulars: octanol/water.

Structures are written as SMILES.

What is called logP is the decadic logarithm of the partition coefficient of the neutral form, usually between octanol and water. Low values mean lower lipophilicity, high ones higher lipophilicity. Regarding `CN(C)CCc1c[nH]c2ccc(O)cc12` [BUFOTENINE], the logP in series [1] came out at 1.19. In series [2], the Poct was 0.16.

Broadly, the pKa is the pH at which an ionisable group is half protonated. High values mean a weaker acid or stronger base, low ones a stronger acid or weaker base. On to `CN(C)CCc1c[nH]c2cccc(O)c12` [PSILOCIN], for which the pKa in series [3] stood at 3.3. Also, the logP in series [1] is 1.45. For the same compound, in series [2], the Poct was 0.68.
